Among the data in patent US10118902B2 (Sanford Burnham Prebys Medical Discovery Institute, priority 2014, dated 2018) are EC50 values, retold here.

A word on the EC50: it is the concentration that produces a half-maximal response.

For this test, the target named is neurotensin receptor 1 (NTR1) (Homo sapiens (Human), UniProt P30989). Briefly: NTR1 dose response, high-content imaging beta-arrestin-GFP assay in NTR1-U2OS cells. Type of test: cell-based. The conditions noted are these: read-out: EC50.
Chain of neurotensin receptor 1 (NTR1) (P30989 whole entry, species assumed): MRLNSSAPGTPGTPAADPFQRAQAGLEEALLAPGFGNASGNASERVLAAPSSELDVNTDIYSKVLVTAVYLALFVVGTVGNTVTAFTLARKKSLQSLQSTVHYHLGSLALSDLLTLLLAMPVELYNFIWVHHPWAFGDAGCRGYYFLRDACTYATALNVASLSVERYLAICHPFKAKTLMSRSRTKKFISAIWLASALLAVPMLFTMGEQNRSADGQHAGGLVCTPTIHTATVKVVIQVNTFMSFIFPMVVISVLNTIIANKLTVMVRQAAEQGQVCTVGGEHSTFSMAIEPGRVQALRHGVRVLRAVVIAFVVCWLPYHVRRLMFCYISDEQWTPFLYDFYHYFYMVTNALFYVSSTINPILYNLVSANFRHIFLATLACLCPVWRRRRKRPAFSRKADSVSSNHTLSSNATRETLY

Regarding `CN(C)CCN(C)c1ccc2nc(C3CC3)nc(N3CCC(c4ccccc4N(C)C)CC3)c2c1` [Example 14, N-{2-cyclopropyl-4-[4-(2-dimethylamino-phenyl)-piperidin-1-yl]-quinazolin-6-yl}-N,N′,N′-trimethyl-ethane-1,2-diamine], the EC50 was 2 to 10 µM.
As for `COC(=O)Cc1c(C)nc(C2CC2)nc1N1CCC(c2ccccc2OC)CC1` [Example 156, Methyl 2-(2-cyclopropyl-4-(4-(2-methoxyphenyl)piperidin-1-yl)-6-methylpyrimidin-5-yl)acetate], the EC50 is over 10 µM.
Next, `COc1ccccc1C1CCN(c2nc(C3CC3)nc3ccc(N4CC[C@@H](O)C4)cc23)CC1` [Example 175, (R)-1-{2-cyclopropyl-4-[4-(2-methoxy-phenyl)-piperidin-1-yl]-quinazolin-6-yl}-pyrrolidin-3-ol]: 0.5 to 2 µM; `CCCN(C)C(=O)Cc1c(C)nc(N2CCC(c3ccccc3OC)CC2)nc1C1CC1` [Example 162, 2-{4-cyclopropyl-2-[4-(2-methoxy-phenyl)-piperidin-1-yl]-6-methyl-pyrimidin-5-yl}-N-methyl-N-propyl-acetamide]: over 10 µM; `COc1ccccc1C1CCN(c2nc(C3CC3)nc3ccc(CN(C)CCN4CCOCC4)cc23)CC1` [Example 88, {2-cyclopropyl-4-[4-(2-methoxy-phenyl)-piperidin-1-yl]-quinazolin-6-ylmethyl}-methyl-(2-morpholin-4-yl-ethyl)-amine]: over 10 µM.
For the compound `COc1nccnc1C1CCN(c2nc(C3(F)CC3)nc3ccc(N(C)CCO)cc23)CC1` [Example 208, 2-({2-(1-Fluoro-cyclopropyl)-4-[4-(3-methoxy-pyrazin-2-yl)-piperidin-1-yl]-quinazolin-6-yl}-methyl-amino)-ethanol], the half-maximal effective concentration (EC50) lay in the range of 0.5 to 2 µM.
Next, `COc1ccccc1C1CCN(c2nc(C3(F)CC3)nc3cc(Cl)c(N(C)CCO)cc23)CC1` [Example 172]: 0.5 to 2 µM.
For `CN(C)c1ccccc1C1CCN(c2nc(C3CC3)nc3cc(F)c(N(C)CCO)cc23)CC1` [Example 120, 2-({2-cyclopropyl-4-[4-(2-dimethylamino-phenyl)-piperidin-1-yl]-7-fluoro-quinazolin-6-yl}-methyl-amino)-ethanol], the EC50 was under 0.5 µM.
Regarding `CCOC(=O)CN(CC(=O)OCC)C1CCN(c2ccc3nc(C4CC4)nc(N4CCC(c5ccccc5OC)CC4)c3c2)CC1` [Example 92], the EC50 is over 10 µM.
In the case of `COc1ccccc1C1CCN(c2nc(C3CC3)nc3ccc(N(C)CCO)c(F)c23)CC1` [Example 132, 2-((2-cyclopropyl-5-fluoro-4-(4-(2-methoxyphenyl)piperidin-1-yl)quinazolin-6-yl)(methyl)amino)ethanol] it was 0.5 to 2 µM; in that of `COc1ccccc1C1CCN(c2nc(C3CC3)nc3ccc(N4CCC(OC)CC4)cc23)CC1` [Example 77], 2 to 10 µM.
In the case of `COc1ccccc1C1CCN(c2nc(C3CC3)nc3cnc(N(C)CCO)cc23)CC1` [Example 137, 2-({2-cyclopropyl-4-[4-(2-methoxy-phenyl)-piperidin-1-yl]-pyrido[3,4-d]pyrimidin-6-yl}-methyl-amino)-ethanol] it was under 0.5 µM.
Next, `CN(C)c1ccccc1C1CCN(c2nc(C3(C(F)(F)F)CC3)nc3ccc(N(C)CCO)cc23)CC1` [Example 49, 2-{[4-[4-(2-dimethylamino-phenyl)-piperidin-1-yl]-2-(1-trifluoromethyl-cyclopropyl)-quinazolin-6-yl]-methyl-amino}-ethanol]: 0.5 to 2 µM; `CN(C)c1ccccc1C1CCN(c2nc(C3(C)CCCC3)nc3ccc(N(C)CCO)cc23)CC1` [Example 53, {[4-[4-(2-Dimethylamino-phenyl)-piperidin-1-yl]-2-(1-methyl-cyclopentyl)-quinazolin-6-yl]-methyl-amino}-ethanol]: 2 to 10 µM.
For the compound `COc1ccccc1C1CCN(c2nc(C3(C)CC3)nc3ccc(N(C)CCN4CCOCC4)cc23)CC1` [Example 34, 4-(4-(2-methoxyphenyl)piperidin-1-yl)-N-methyl-2-(1-methylcyclopropyl)-N-(2-morpholinoethyl) quinazolin-6-amine], the EC50 fell in the range of 2 to 10 µM.
Turning to `COc1cncnc1C1CCN(c2nc(C3(F)CC3)nc3ccc(N(C)CCO)cc23)CC1` [Example 211, 2-({2-(1-Fluoro-cyclopropyl)-4-[4-(5-methoxy-pyrimidin-4-yl)-piperidin-1-yl]-quinazolin-6-yl}-methyl-amino)-ethanol], the EC50 was over 10 µM.
`COc1ccccc1C1CCN(c2nc(C3(F)CC3)nc3c(Cl)cc(N(C)CCO)cc23)CC1` [Example 201, 2-({8-Chloro-2-(1-fluoro-cyclopropyl)-4-[4-(2-methoxy-phenyl)-piperidin-1-yl]-quinazolin-6-yl}-methyl-amino)-ethanol]: the EC50 was under 0.5 µM.
In the case of `COCCN(C)c1ccc2nc(C3(C)CC3)nc(N3CCC(c4ccccc4N(C)C)CC3)c2c1` [Example 26, [4-[4-(2-dimethylamino-phenyl)-piperidin-1-yl]-2-(1-methyl-cyclopropyl)-quinazolin-6-yl]-(2-methoxy-ethyl)-methyl-amine] it was over 10 µM.
Next, `COc1ccccc1C1CCN(c2nc(C3(F)CCC3)nc3cnc(N4CC[C@@H](O)C4)cc23)CC1` [Example 199, 1-{2-(1-Fluoro-cyclobutyl)-4-[4-(2-methoxy-phenyl)-piperidin-1-yl]-pyrido[3,4-d]pyrimidin-6-yl}-pyrrolidin-3-ol]: 2 to 10 µM; `COc1ccccc1C1CCN(c2nc(C3CC3)nc3c(Cl)cc(N(C)CCO)cc23)CC1` [Example 130, 2-({8-chloro-2-cyclopropyl-4-[4-(2-methoxy-phenyl)-piperidin-1-yl]-quinazolin-6-yl}-methyl-amino)-ethanol]: under 0.5 µM; `COc1ncccc1C1CCN(c2nc(C3(F)CC3)nc3ccc(N(C)CCO)cc23)CC1` [Example 207, 2-{[2-(1-Fluoro-cyclopropyl)-4-(2-methoxy-3′,4′,5′,6′-tetrahydro-2′H-[3,4′]bipyridinyl-1′-yl)-quinazolin-6-yl]-methyl-amino}-ethanol]: 0.5 to 2 µM.
Take `COc1cc(F)ccc1C1CCN(c2nc(C3CC3)nc3ccc(N(C)CCO)cc23)CC1` [Example 108, 2-({2-cyclopropyl-4-[4-(4-fluoro-2-methoxy-phenyl)-piperidin-1-yl]-quinazolin-6-yl}-methyl-amino)-ethanol]: the EC50 lay within 0.5 to 2 µM.
For the compound `COc1ncccc1C1CCN(c2nc(C3(F)CC3)nc3c(F)cc(N(C)CCO)cc23)CC1` [Example 214, 2-{[8-Fluoro-2-(1-fluoro-cyclopropyl)-4-(2-methoxy-3′,4′,5′,6′-tetrahydro-2′H-[3,4′]bipyridinyl-1′-yl)-quinazolin-6-yl]-methyl-amino}-ethanol], the EC50 lay within 0.5 to 2 µM.
As to `COc1cccnc1N1CCN(c2nc(C3(F)CC3)nc3ccc(N(C)CCO)cc23)CC1` [Example 209, 2-({2-(1-Fluoro-cyclopropyl)-4-[4-(3-methoxy-pyridin-2-yl)-piperazin-1-yl]-quinazolin-6-yl}-methyl-amino)-ethanol], the EC50 fell in the range of 2 to 10 µM.
In the case of `COCCN(C)c1ccc2nc(C3(F)CC3)nc(N3CCC(c4ccccc4OC)CC3)c2c1` [Example 16, {2-(1-fluoro-cyclopropyl)-4-[4-(2-methoxy-phenyl)-piperidin-1-yl]-quinazolin-6-yl}-(2-methoxy-ethyl)-methyl-amine] it was 0.5 to 2 µM.
